Measured values as given in patent US20060122279A1, “Hydrophobic polyamine amides as potent lipopolysaccharide sequestrants” (priority 2004, published 2006).
“And” between values parts separate entries of the source, which are not always exact repeats. Identical values can stand only once. Like-named read-outs stand apart in the source and are kept apart here.

Columns and labels:
[1] = type: binding, E. coli 0111:B4; settings: for EC50: E. coli 0111:B4 LPS, Tables 1-3, read-out: ED50 (half-maximal effective displacement of BC probe from LPS)
Procedure: Polymyxin B (PMB), a peptide antibiotic known to bind and neutralize LPS^47 serves as the positive control and reference compound for every plate, enabling the quantitative assessment of repeatability and reproducibility (CV and Z′ factors) for the assay. Robotic liquid handling is performed on a Precision 2000 automated microplate pipetting system, programmed using the Precision Power software, Bio-Tek Instruments Inc., VT, USA. Stock solutions of LPS (5 mg/ml; E. coli 0111:B4; procured from Sigma) and BC (500 μM) are prepared in Tris buffer (pH 7.4, 50 mM). 1 ml each of the LPS and BC stocks are mixed and diluted in Tris buffer to a final volume of 100 ml, yielding final concentrations of 50 μg/ml of LPS and 5 μM BC. 40 μl of this BC:LPS mixture is added to each well of the plate using the Precision 2000. Fluorescence measurements are made at 25° C. on a Fluoromax-3 with Micromax Microwell 384-well plate reader, using DataMax software, Jobin Yvon Inc., N.J. The BC excitation wavelength is 580 nm, emission spectra are taken at 620 nm with both emission and excitation monochromator bandpasses set at 5 nm.

[2] = system: murine macrophage J774.A1 cells; assay: Nitric oxide (NO) inhibition in LPS-stimulated J774.A1 cells (Griess); type: cell-based; settings: for prevention of LPS-induced NO release from J774.A1 macrophages: in words
Procedure: Murine monocytes (J774.A1 cells) produce measurable quantities of NO on exposure to LPS and provide a model for the rapid assessment of compounds to neutralize LPS activity. […] In all experiments, Polymyxin B (PMB), a decapeptide antibiotic, known to bind and neutralize LPS,^29;47;48 is used as a reference compound.
Nitric oxide production is measured as total nitrite in murine macrophage J774.A1 cells using the Griess reagent system.^53;54 Murine macrophage J774.A1 cells are grown in RPMI-1640 cell-culture medium containing L-glutamine and sodium bicarbonate and supplemented with 10% fetal bovine serum, 1% L-glutamine-penicillin-streptomycin solution, and 200 μg/ml L-arginine at 37° C. in a 5% CO2 atmosphere. Cells are plated at ˜2×10^6/ml in a volume of 40 μl/well, in 384 well, flat-bottomed, cell culture treated microtiter plates until confluency and subsequently stimulated with 100 ng/ml lipopolysaccharide (LPS). Concurrent to LPS stimulation, serially diluted concentrations of test compounds are added to the cell medium and left to incubate overnight for 16 h. Polymyxin B is used as reference compound in each plate. Positive—(LPS stimulation only) and negative-controls (J774.A1 medium only) are included in each experiment. Nitrite concentrations are measured adding 30 μl of supernatant to equal volumes of Griess reagents (50 μl/well; 0.1% NED solution in ddH2O and 1% sulfanilamide, 5% phosphoric acid solution in ddH2O) and incubating for 15 minutes at room temperature in the dark. Absorbance at 535 nm is measured using a Molecular Devices Spectramax M2 multifunction plate reader (Sunnyvale, Calif.). Nitrite concentrations are interpolated from standard curves obtained from serially diluted sodium nitrite standards.

[3] = system: NFκB; assay: NFκB inhibition (LPS-induced); type: cell-based; settings: for prevention of LPS-induced NFκβ cytokine release from stimulated lymphocytes: in words
Description: A focused library of alkyl or acyl c-substituted lysine-spermine conjugates is synthesized with even carbon-numbered chains of C14 to C20 lengths. […] Furthermore, the data showhigh activity compounds are those with chain lengths between C16 and C20. […] The exemplary compounds L-Lys-ε-(stearoyl)-N^1-spermine, D-Lys-ε-(stearoyl)-N^1-spermine, L-Lys-ε-(octadecanyl)-N^1-spermine and D-Lys-ε-(octadecanyl)—N1-spermine all show high activity for the prevention of LPS-induced NFκβ cytokine release from stimulated lymphocytes. Furthermore, the exemplary compounds L-Lys-ε-(stearoyl)-N^1-spermine, D-Lys-ε-(stearoyl)-N^1-spermine, L-Lys-ε-(octadecanyl)-N^1-spermine and D-Lys-ε-(octadecanyl)-N^1-spermine all show high activity for the prevention of LPS-induced NO release from stimulated lymphocytes.

[4] = J774.A1 cells, 100 ng/ml LPS, 16 h, Tables 1-3, read-out: NO IC50
[5] = Mus musculus, J774.A1, 16 h, read-out: NO IC50, J774.A1 cells, 100 ng/ml LPS, 16 h, Tables 1-3
[6] = Table 7 focused library, NO inhibition, read-out: NO
[7] = Mus musculus, J774.A1, 16 h, J774.A1 cells, 100 ng/ml LPS, 16 h, Tables 1-3, read-out: NO IC50
[8] = Mus musculus, J774.A1, read-out: IC50 (LPS neutralization, NO)

CCCC/C=C/CCCCCCCCCC(=O)NCCCCC(N)C(=O)NCCCNCCCCNCCCN (centres unmarked) [Compound 15]
EC50 [1]: 3.8 µM and 3.82 µM
IC50 [2, 4]: 8.85 µM
IC50 [2, 5]: 8.8 µM

CCCCCCCCCCCCCCCCCCNCCCC[C@H](N)C(=O)NCCCNCCCCNCCCN [Compound 44, L-Lys-ε-(octadecanyl)-N^1-spermine]
IC50 [2, 6]: 2.25 µM
prevention of LPS-induced NO release from J774.A1 macrophages [2]: high activity
prevention of LPS-induced NFκβ cytokine release from stimulated lymphocytes [3]: high activity

NCCCNCCCCNCCCNC(=O)C(N)CCCCNCC1CCCCC1 (centres unmarked) [Compound 37]
EC50 [1]: 9.8 µM and 9.84 µM
IC50 [2, 7]: > 1000 µM

NCCCNCCCCNCCCNC(=O)C(N)CCCCNC(=O)CC1CC2CCC1C2 [Compound 20, D-Lys-ε-(2-norbornaneacetoyl)-N^1-spermine]
EC50 [1]: 16.2 µM

CC(C)(C)CCNCCCCC(N)C(=O)NCCCNCCCCNCCCN [Compound 34, D-Lys-ε-(3,3-dimethyl-1-butyl)-N^1-spermine]
EC50 [1]: 10.9 µM
IC50 [2, 4]: 838 µM

NCCCNCCCCNCCCNC(=O)C(N)CCCCNC(=O)c1ccc(-c2ccccc2)cc1 [Compound 21, D-Lys-ε-(4-biphenycarboxamide)-N^1-spermine]
EC50 [1]: 7.9 µM and 7.86 µM
IC50 [2, 4]: 124 µM
IC50 [2, 5]: > 100 µM

NCCCNCCCCNCCCNC(=O)C(N)CCCCNC(=O)CCCc1ccc2ccc3cccc4ccc1c2c34 [Compound 22, L-Lys-ε-(4-(1-pyrene)-butanoyl)-N^1-spermine]
EC50 [1]: 7.1 µM and 7.09 µM
IC50 [2, 4]: 108 µM
IC50 [2, 5]: > 100 µM

NCCCNCCCCNCCCNC(=O)C(N)CCCCNCc1ccc(-c2ccccc2)cc1 [Compound 39, D-Lys-ε-(4-phenylbenzyl)-N^1-spermine]
EC50 [1]: 3.7 µM and 3.71 µM
IC50 [2, 4]: 105 µM
IC50 [2, 5]: > 100 µM

CCCCCCCCCCCCCCCCCC(=O)NCCCCC(N)C(=O)NCCCNCCCCNCCCN [Compound 9, L-Lys-ε-(stearoyl)-N^1-spermine]
EC50 [1]: 16 µM and 16.4 µM
IC50 [2, 4]: 18.1 µM
IC50 ([2]; Mus musculus, J774.A1, Table 7 focused library, NO inhibition, read-out: NO): 8.78 µM
prevention of LPS-induced NO release from J774.A1 macrophages [2]: high activity
IC50 ([3]; Table 7 focused library, NFκB inhibition, read-out: NFκ B): 0.736 µM
prevention of LPS-induced NFκβ cytokine release from stimulated lymphocytes [3]: high activity

CCCCCCNCCCCC(N)C(=O)NCCCNCCCCNCCCN (centres unmarked) [Compound 31]
EC50 [1]: 7.13 µM
IC50 [2, 7]: > 1000 µM

CCCCCCCCCCCCCCCCCCCCNCCCCC(N)C(=O)NCCCNCCCCNCCCN (centres unmarked) [Compound 45]
IC50 [2, 6]: 3.67 µM

CCCCCCCCCCCCCCCCC(=O)NCCCCC(N)C(=O)NCCCNCCCCNCCCN [Compound 11, L-Lys-ε-(heptadecanoyl)-N^1-spermine]
EC50 [1]: 6.71 µM
IC50 [2, 7]: 4.49 µM

CC(C)(C)CCNCCCCC(N)C(=O)NCCCNCCCCNCCCN (centres unmarked) [Compound 33]
EC50 [1]: 12.1 µM
IC50 [2, 7]: > 1000 µM

CCCCCCCCCCCCCCCC(=O)NCCCCC(N)C(=O)NCCCNCCCCNCCCN [Compound 13, D-Lys-ε-(palmitoyl)-N^1-spermine]
EC50 [1]: 10 µM and 9.94 µM
IC50 [2, 4]: 2.29 µM
IC50 [2, 6]: 13 µM

CCCCCCCCCCCCCCCCCCNCCCC[C@@H](N)C(=O)NCCCNCCCCNCCCN [Compound 48, D-Lys-ε-(octadecanyl)-N^1-spermine]
IC50 [2, 6]: 3.08 µM
prevention of LPS-induced NO release from J774.A1 macrophages [2]: high activity
prevention of LPS-induced NFκβ cytokine release from stimulated lymphocytes [3]: high activity

CCCCCCCNCCCCC(N)C(=O)NCCCNCCCCNCCCN (centres unmarked) [Compound 29]
EC50 [1]: 5.99 µM
IC50 [2, 4]: 46.4 µM
IC50 [2, 7]: 46 µM

CC(C)(C)C(=O)NCCCCC(N)C(=O)NCCCNCCCCNCCCN (centres unmarked) [Compound 19]
EC50 [1]: 327 µM
IC50 [2, 7]: > 1000 µM

CCCCCCCCCCCCCCNCCCCC(N)C(=O)NCCCNCCCCNCCCN (centres unmarked) [Compound 43]
IC50 [2, 6]: 6.17 µM

CCCCCCCCCCCCCCNCCCCCC(=O)NCCCNCCCCNCCCN [Compound 54]
IC50 [2, 6]: 9.48 µM

CCCCCCCCCCCCCCCCCCCC(=O)NCCCCC(N)C(=O)NCCCNCCCCNCCCN (centres unmarked) [Compound 42]
IC50 [2, 6]: 5.77 µM

CCCCCCCNCCCCC(N)C(=O)NCCCNCCCCNCCCN (centres unmarked) [Compound 28]
EC50 [1]: 3.86 µM
IC50 [2, 4]: 82.3 µM

CC(C)=CCC[C@H](C)CCNCCCCC(N)C(=O)NCCCNCCCCNCCCN (some centres unmarked) [Compound 32]
EC50 [1]: 9.6 µM and 9.55 µM
IC50 [2, 7]: > 1000 µM

CCCCCCCCCCCCCCCCCCCC(=O)NCCCCCC(=O)NCCCNCCCCNCCCN [Compound 53]
IC50 [2, 6]: 26.6 µM

CCCCCCCCCCCCCCCCCCCCNCCCCC(N)C(=O)NCCCNCCCCNCCCN (centres unmarked) [Compound 49]
IC50 [2, 6]: 2.2 µM

CCCCCCCCCCCCCCCCS(=O)(=O)NCCCCC(N)C(=O)NCCCNCCCCNCCCN [Compound 12, L-Lys-ε-(hexadecanesulfonamide)-N^1-spermine]
EC50 [1]: 5.93 µM

CCCC/C=C\CCCCCCCCCCNCCCCC(N)C(=O)NCCCNCCCCNCCCN (centres unmarked) [Compound 27]
EC50 [1]: 2.59 µM
IC50 ([1]; b47, cis-unsaturated vs saturated alkyl): 2.6 µM
IC50 [2, 7]: 0.66 µM

CCCCCCCCCCCCCCCCCC(=O)NCCCCCC(=O)NCCCNCCCCNCCCN [Compound 52]
IC50 [2, 6]: 29.6 µM

CCCCCCCCCCCCCC(=O)NCCCCC(N)C(=O)NCCCNCCCCNCCCN (centres unmarked) [Compound 41]
IC50 [2, 6]: 26 µM

CCCCCCCCCCCCCCCCNCCCCC(N)C(=O)NCCCNCCCCNCCCN (centres unmarked) [Compound 47]
IC50 [2, 6]: 6.89 µM

CCCCCCCCCCCCCCNCCCCC(N)C(=O)NCCCNCCCCNCCCN (centres unmarked) [Compound 46]
IC50 [2, 6]: 5.34 µM

CC(C)C(=O)NCCCCC(N)C(=O)NCCCNCCCCNCCCN [Compound 18, D-Lys-ε-(isopropoyl)-N^1-spermine]
EC50 [1]: 299 µM
IC50 [2, 7]: > 1000 µM

CCCCCCCCCCCCCC(=O)NCCCCCC(=O)NCCCNCCCCNCCCN [Compound 50]
IC50 [2, 6]: 48.4 µM

COCCOCCOCC(=O)NCCCCC(N)C(=O)NCCCNCCCCNCCCN [Compound 24, L-Lys-ε-(2-[2-(2-methoxyethoxy)ethoxy]acetoyl)-N^1-spermine]
EC50 [1]: 572 µM
IC50 [2, 7]: > 1000 µM
IC50 [2, 8]: > 1000 µM

CCCCCCCCCCCCCCCCCCCCNCCCCCC(=O)NCCCNCCCCNCCCN [Compound 57]
IC50 [2, 6]: 5.02 µM

CCCCCCCCCCCCCCCCNCCCCCC(=O)NCCCNCCCCNCCCN [Compound 55]
IC50 [2, 6]: 6.12 µM

COCCOCC(=O)NCCCCC(N)C(=O)NCCCNCCCCNCCCN [Compound 25, L-Lys-ε-(2-(2-methoxyethoxy)acetoyl)-N^1-spermine]
EC50 [1]: 495 µM
IC50 [2, 7]: > 1000 µM
IC50 [2, 8]: > 1000 µM

CCCCCC/C=C/CCCCCCCCCC(=O)NCCCCC(N)C(=O)NCCCNCCCCNCCCN (centres unmarked) [Compound 10]
EC50 [1]: 4.2 µM

CCCCCCCCCCCCCCCCCCNCCCCCC(=O)NCCCNCCCCNCCCN [Compound 56]
IC50 [2, 6]: 5.34 µM

NCCCNCCCCNCCCNC(=O)C(N)CCCCN(CC1CCCCC1)CC1CCCCC1 [Compound 38, L-Lys-ε-(bis-(cyclohexyl))-N^1-spermine]
EC50 [1]: 4 µM and 4.04 µM
IC50 [2, 4]: > 1000 µM

CCCCCCCN(CCCCCCC)CCCC[C@H](N)C(=O)NCCCNCCCCNCCCN [Compound 30, L-Lys-ε-(bis-(n-heptyl))-N^1-spermine]
EC50 [1]: 2.14 µM
IC50 [2, 4]: 38.8 µM

CCCCCCCC(=O)NCCCCC(N)C(=O)NCCCNCCCCNCCCN [Compound 17, L-Lys-ε-(octanoyl)-N^1-spermine]
EC50 [1]: 13 µM
IC50 [2, 4]: 162 µM
IC50 [2, 7]: 160 µM

CC(C)CNCCCCC(N)C(=O)NCCCNCCCCNCCCN [Compound 35, D-Lys-ε-(3-methylpropyl)-N^1-spermine]
EC50 [1]: 101 µM
IC50 [2, 7]: 72.9 µM
